In US20220257774A1, “AROMATIC AMINE AR AHD BET TARGETING PROTEIN DEGRADATION CHIMERA COMPOUND AND USE” (HINOVA PHARMACEUTICALS INC., priority 2019, published 2022) one finds IC50 data, which are given here for 16 molecules.

Where two headings read alike, the source gives them in different places.

The test system of assay [1] is 22RV1 cells. Kind of assay: Inhibition of the proliferation of drug-resistant prostate cancer cell 22RV1 (CCK-8). The following applies: 22RV1 cells (enzalutamide-resistant), same method. The class given is cell-based. The procedure: (1) Experimental materials and instruments: LNCaP/AR cell line and 22RV1 cell line (provided by Sichuan Kangcheng Biotechnology Co., Ltd.) Fetal bovine serum FBS (Gibco, Cat. No. 10099-141) 0.01M PBS (Biosharp, Cat. No. 162262) RIPM1640 medium (Hyclone, Cat. No. 308090.01) Penicillin-Streptomycin (Hyclone, Cat. No. SV30010) Cell counting kit-8 (Signalway Antibody, Cat. No. CP002) DMSO (Sigma, Cat. No. D5879) Centrifuge Tube, 15 ml (Excell Bio, Cat. No. CS015-0001) Cell Culture Dish, (Excell Bio, Cat. No. CS016-0128) 96-well cell culture plate (Corning, Cat. No. 3599) Microplate reader (Thermo Multiskan MK3 type)
a. Preparation of Buffer Cell culture medium: RIPM1640 medium, 10% FBS, 1% Pen Strep: PBS buffer: PBS powder was dissolved in 2 L of ultrapure water and sterilized. b. Experimental Procedures 1) LNCaP/AR cells were subcultured in cell culture media, and then the cells in good growth condition were seeded in a 96-well plate at 80 μL/well (1000 cells/well), and cultured overnight in a 37° C., 5% CO2 cell incubator. 2) The drug was prepared into a 10 mM stock solution with dimethyl sulfoxide (DMSO). Prior to use, the stock solution was diluted in a ratio of […] with DMSO, and then diluted at a 3-fold gradient to obtain 9 serial concentrations. Then, each concentration of compound was further diluted in a ratio of 1:200 with the culture medium (to ensure that the DMSO concentration in the culture system was 0.1%), and two wells were set for each concentration. 20 μL of the diluted compound solution was added to the well of the cell culture (with a final concentration of 10 μM, 3.3 μM, 1.1 μM . . . ), and then the plate was gently tapped to thoroughly mix. In addition, the experiment included 3 negative control wells only containing cells and 3 blank control wells only containing culture medium (6 wells were each added with DMSO diluted in a ratio of 1:200 with 20 μL of culture medium). c. Result Detection: 1) After culturing for 6 days, 10 μL of CCK-8 was added to each well, and the plate was further incubated for 1 h in a 37° C., 5% CO2 cell incubator. 2) The absorbance (OD value) was measured at 450 nm with a multifunctional microplate reader. 3) The data was analyzed by the Dose-response-inhibition equation in the software GraphPad Prism5, and the IC50 value was obtained. 2. Biological assay of the inhibition on the proliferation of other drug-resistant prostate cancer cells
The same test method was used to determine the inhibitory activity of the compound according to the present invention against drug-resistant prostate cancer cell 22RV1.

For assay [2], the system named is LNCaP/AR cells. Kind of assay: Inhibition of the proliferation of LNCap/AR cells (CCK-8). The assay is classed as cell-based. The following applies: read-out: LNCap/AR IC50. The gist of the method:
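Proliferation was read by CCK-8 (OD 450 nm, 1 h) after six days of compound exposure. Cells were seeded at 1000 per well overnight, then dosed in duplicate over nine 3-fold steps with a top final concentration of 10 μM in 0.1% DMSO; IC50 was fitted from inhibition curves.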

[3] abbreviates: 144 h, LNCaP/AR cells, 6 days culture, CCK-8.
[4] abbreviates: LNCaP/AR cells, 6 days culture, CCK-8.

On to `CC(=O)O[C@@H]1C[C@@H](C(=O)N[C@@H](C)c2ccc(-c3scnc3C)cc2)N(C(=O)[C@@H](NC(=O)COCCCCCN(c2ccc(C#N)c(Cl)c2)c2cc(-c3c(C)n[nH]c3C)ccc2C)C(C)(C)C)C1` [Compound 45], for which the IC50 in assay [1] (Homo sapiens) is more than 2000 nM; in assay [2] (LNCaP/AR, 144 h), 501 to 2000 nM.

In the case of `Cc1ccc(-c2c(C)noc2C)cc1N(CCCCCCNc1ccc2c(c1)CN(C1CCC(=O)NC1=O)C2=O)c1ccc(C2(C#N)CC2)cc1` (centres unmarked) [Compound 61, 1-(4-((5-(3,5-dimethylisoxazol-4-yl)-2-methylphenyl)(6-((2-(2,6-dioxopiperidin-3-yl)-1-oxoisoindolin-5-yl)amino)hexyl)amino)phenyl)cyclopropane-1-nitrile], the IC50 in assay [1] (Homo sapiens) and in assay [2] (setting [3]) was less than 100 nM in each case.

With `Cc1ccc(-c2c(C)noc2C)cc1N(CCCCNc1ccc2c(c1)CN(C1CCC(=O)NC1=O)C2=O)c1ccc(C2(C#N)CC2)cc1` (centres unmarked) [Compound 62, 1-(4-((5-(3,5-dimethylisoxazol-4-yl)-2-methylphenyl)(4-((2-(2,6-dioxopiperidin-3-yl)-1-oxoisoindolin-5-yl)amino)butyl)amino)phenyl)cyclopropane-1-nitrile], the IC50 in assay [1] (Homo sapiens) and in assay [2] (setting [3]) was less than 100 nM each time.

Take `Cc1ccc(-c2c(C)noc2C)cc1N(CCN1CCN(c2ccc3c(c2)C(=O)N(C2CCC(=O)NC2=O)C3=O)CC1)c1ccc(C2(C#N)CC2)cc1` (centres unmarked) [Compound 64, 1-(4-((5-(3,5-Dimethylisoxazol-4-yl)-2-methylphenyl)(2-(4-(2-(2,6-dioxopiperidin-3-yl)-1,3-dioxoisoindolin-5-yl)piperazin-1-yl)ethyl)amino)phenyl)cyclopropane-1-nitrile]: the results for the IC50 in assay [1] (Homo sapiens) and in assay [2] (setting [3]) were less than 100 nM and 501 to 2000 nM, respectively.

`Cc1ccc(-c2c(C)noc2C)cc1N(CCN1CCN(c2ccc3c(c2)CN(C2CCC(=O)NC2=O)C3=O)CC1)c1ccc(C2(C#N)CC2)cc1` (centres unmarked) [Compound 65, 1-(4-((5-(3,5-dimethylisoxazol-4-yl)-2-methylphenyl)(2-(4-(2-(2,6-dioxopiperidin-3-yl)-1-oxoisoindolin-5-yl)piperazin-1-yl)ethyl)amino)phenyl)cyclopropane-1-nitrile]: the values for the IC50 in assay [1] (Homo sapiens) and in assay [2] (setting [3]) were 101 to 500 nM and 501 to 2000 nM, respectively.

For the molecule `Cc1ccc(-c2c(C)noc2C)cc1N(c1ccc(C2(C#N)CC2)cc1)C1CN(C2CCN(c3ccc4c(c3)C(=O)N(C3CCC(=O)NC3=O)C4=O)CC2)C1` (centres unmarked) [Compound 66], the IC50 in assay [1] (Homo sapiens) was less than 100 nM; in assay [2] (setting [3]) it was 101 to 500 nM.

Turning to `Cc1ccc(-c2c(C)noc2C)cc1N(c1ccc(C2(C#N)CC2)cc1)C1CN(CC2CN(c3ccc4c(c3)C(=O)N(C3CCC(=O)NC3=O)C4=O)C2)C1` (centres unmarked) [Compound 67, 1-(4-((5-(3,5-dimethylisoxazol-4-yl)-2-methylphenyl)(1-((1-(2-(2,6-dioxopiperidin-3-yl)-1,3-dioxoisoindolin-5-yl)azetidin-3-yl)methyl)azetidine-3-yl)amino)phenyl)cyclopropane-1-carbonitrile], the results for the IC50 in assay [1] (Homo sapiens) and in assay [2] (setting [3]) were less than 100 nM and 101 to 500 nM, respectively.

In the case of `Cc1ccc(-c2c(C)noc2C)cc1N(c1ccc(C2(C#N)CC2)cc1)C1CN(C2CC(Nc3cc4c(cc3F)C(=O)N([C@H]3CCC(=O)NC3=O)C4)C2)C1` (some centres unmarked) [Compound 69, 1-(4-((5-(3,5-dimethylisoxazol-4-yl)-2-methylphenyl)(1-((1 s,3s)-3-((2-(2,6-dioxopiperidin-3-yl)-6-fluoro-1-oxoisoindolin-5-yl)amino)cyclobutyl)azetidin-3-yl)amino)phenyl)cyclopropane-1-nitrile], the IC50 in assay [1] and in assay [2] (setting [4]) was more than 2000 nM throughout.

For the molecule `Cc1ccc(-c2c(C)noc2C)cc1N(CC1CN([C@H]2C[C@@H](Nc3cc4c(cc3F)C(=O)N(C3CCC(=O)NC3=O)C4=O)C2)C1)c1ccc(C2(C#N)CC2)cc1` (some centres unmarked) [Compound 71, 1-(4-((5-(3,5-dimethylisoxazol-4-yl)-2-methylphenyl)((1-((1s,3s)-3-((2-(2,6-dioxopiperidin-3-yl)-6-fluoro-1,3-dioxoisoindolin-5-yl)amino)cyclobutyl)azetidin-3-yl)methyl)amino)phenyl)cyclopropane-1-nitrile], the IC50 in assay [1] (Homo sapiens) and in assay [2] (setting [3]) was more than 2000 nM throughout.

`Cc1ccc(-c2c(C)noc2C)cc1N(CC1CN([C@H]2C[C@H](Nc3cc4c(cc3F)C(=O)N(C3CCC(=O)NC3=O)C4=O)C2)C1)c1ccc(C2(C#N)CC2)cc1` (some centres unmarked) [Compound 72, 1-(4-((5-(3,5-dimethylisoxazol-4-yl)-2-methylphenyl][(1-((1r,3r)-3-((2-(2,6-dioxopiperidin-3-yl)-6-fluoro-1,3-dioxoisoindolin-5-yl)amino)cyclobutyl)azetidin-3-yl)methyl)amino)phenyl)cyclopropane-1-nitrile]: the IC50 in assay [1] (Homo sapiens) and in assay [2] (setting [3]) was more than 2000 nM each time.

Turning to `Cc1ccc(-c2c(C)noc2C)cc1N(c1ccc(C2(C#N)CC2)cc1)C1CN(C2CCC(Nc3cc4c(cc3F)C(=O)N(C3CCC(=O)NC3=O)C4=O)CC2)C1` (centres unmarked) [Compound 73, 1-(4-((5-(3,5-dimethylisoxazol-4-yl)-2-methylphenyl)(1-((1s,4s)-4-((2-(2,6-dioxopiperidin-3-yl)-6-fluoro-1,3-dioxoisoindolin-5-yl)amino)cyclohexyl)azetidin-3-yl)amino)phenyl)cyclopropane-1-nitrile], the IC50 in assay [1] and in assay [2] (setting [4]) was more than 2000 nM in each case.

In the case of `Cc1ccc(-c2c(C)noc2C)cc1N(c1ccc(C2(C#N)CC2)cc1)C1CN([C@H]2CC[C@H](Nc3cc4c(cc3F)C(=O)N(C3CCC(=O)NC3=O)C4=O)CC2)C1` (some centres unmarked) [Compound 74], the IC50 in assay [1] and in assay [2] (setting [4]) was more than 2000 nM throughout.

For `Cc1ccc(-c2c(C)noc2C)cc1N(CC1CN(C2CCN(c3ccc4c(c3)C(=O)N(C3CCC(=O)NC3=O)C4)CC2)C1)c1ccc(C2(C#N)CC2)cc1` (centres unmarked) [Compound 75, 1-(4-((5-(3,5-dimethylisoxazol-4-yl)-2-methylphenyl)((1-(1-(2-(2,6-dioxopiperidin-3-yl)-3-oxoisoindolin-5-yl)piperidin-4-yl)azetidin-3-yl)methyl)amino)phenyl)cyclopropane-1-carbonitrile], the IC50 in assay [1] (Homo sapiens) and in assay [2] (setting [3]) was more than 2000 nM each time.

Consider `Cc1ccc(-c2c(C)noc2C)cc1N(CC1CN(C2CCN(c3ccc4c(c3)CN(C3CCC(=O)NC3=O)C4=O)CC2)C1)c1ccc(C2(C#N)CC2)cc1` (centres unmarked) [Compound 76, 1-(4-((5-(3,5-dimethylisoxazol-4-yl)-2-methylphenyl)((1-(1-(2-(2,6-dioxopiperidin-3-yl)-1-oxoisoindolin-5-yl)piperidinyl-4-yl)azetidin-3-yl)methyl)amino)phenyl)cyclopropane-1-carbonitrile], for which the IC50 in assay [1] (Homo sapiens) and in assay [2] (setting [3]) was more than 2000 nM in each case.

As for `Cc1ccc(-c2c(C)noc2C)cc1N(CC1CCN(C2CCN(c3ccc4c(c3)C(=O)N(C3CCC(=O)NC3=O)C4=O)CC2)CC1)c1ccc(C2(C#N)CC2)cc1` (centres unmarked) [Compound 77, 1-(4-((5-(3,5-dimethylisoxazol-4-yl)-2-methylphenyl)((1′-(2-(2,6-dioxopiperidin-3-yl)-1,3-dioxoisoindolin-5-yl)-[1,4′-bipiperidine]-4-yl)methyl)amino)phenyl)cyclopropane-1-nitrile], the IC50 in assay [1] (Homo sapiens) is more than 2000 nM; in assay [2] (LNCaP/AR, 144 h) it was more than 2000 nM.

On to `Cc1ccc(-c2c(C)noc2C)cc1N(CC1CCN(CC2CN(c3ccc4c(c3)C(=O)N(C3CCC(=O)NC3=O)C4=O)C2)CC1)c1ccc(C2(C#N)CC2)cc1` (centres unmarked) [Compound 78, 1-(4-((5-(3,5-dimethylisoxazol-4-yl)-2-methylphenyl)((1-((1-(2-(2,6-dioxopiperidin-3-yl)-1,3-dioxoisoindolin-5-yl)azetidin-3-yl)methyl)piperidin-4-yl)methyl)amino)phenyl)cyclopropane-1-carbonitrile], for which the IC50 in assay [1] (Homo sapiens) and in assay [2] (setting [3]) was more than 2000 nM in each case.
